According to ChEMBL document CHEMBL1201862, “PubChem BioAssay data set” (2004):
The source made the active and inactive calls.

Key:
[1] = target: T1, Hexokinase HKDC1 (Homo sapiens, UniProt Q2TB90); assay: HKDC1 hexokinase inhibitors, dose response, biochemical, W721R variant (AID 504729); assay type: functional
T1 sequence (Q2TB90 whole entry): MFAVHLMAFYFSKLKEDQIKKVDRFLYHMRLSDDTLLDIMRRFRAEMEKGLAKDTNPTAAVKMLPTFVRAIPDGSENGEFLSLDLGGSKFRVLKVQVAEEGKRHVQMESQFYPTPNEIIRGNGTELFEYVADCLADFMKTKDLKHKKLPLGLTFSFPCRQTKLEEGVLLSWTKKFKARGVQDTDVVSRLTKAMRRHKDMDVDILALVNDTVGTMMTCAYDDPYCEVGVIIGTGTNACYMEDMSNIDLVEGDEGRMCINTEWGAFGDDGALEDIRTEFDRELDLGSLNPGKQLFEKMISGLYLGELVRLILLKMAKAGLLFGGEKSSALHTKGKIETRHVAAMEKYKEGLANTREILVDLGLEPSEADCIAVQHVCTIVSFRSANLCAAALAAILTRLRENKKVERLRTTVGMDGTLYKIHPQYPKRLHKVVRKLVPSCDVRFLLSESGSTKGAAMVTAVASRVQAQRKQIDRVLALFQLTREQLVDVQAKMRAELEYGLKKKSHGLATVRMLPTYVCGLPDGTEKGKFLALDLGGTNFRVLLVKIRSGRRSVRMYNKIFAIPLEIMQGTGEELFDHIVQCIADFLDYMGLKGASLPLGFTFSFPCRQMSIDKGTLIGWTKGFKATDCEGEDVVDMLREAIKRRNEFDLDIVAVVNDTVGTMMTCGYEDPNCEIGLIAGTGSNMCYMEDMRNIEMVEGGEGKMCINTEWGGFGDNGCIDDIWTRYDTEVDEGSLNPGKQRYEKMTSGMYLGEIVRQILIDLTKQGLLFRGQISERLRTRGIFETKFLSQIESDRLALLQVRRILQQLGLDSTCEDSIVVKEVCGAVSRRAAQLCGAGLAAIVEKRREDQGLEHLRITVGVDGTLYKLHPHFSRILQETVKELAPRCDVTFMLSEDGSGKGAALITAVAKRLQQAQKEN

[2] = target: T2, Replicative DNA helicase DnaB (Mycobacterium tuberculosis, UniProt P9WMR3); assay: DnaB intein splicing inhibitors, dose response, biochemical, cell-free fluorescence (AID 449749); assay type: functional
T2 sequence (P9WMR3 whole entry): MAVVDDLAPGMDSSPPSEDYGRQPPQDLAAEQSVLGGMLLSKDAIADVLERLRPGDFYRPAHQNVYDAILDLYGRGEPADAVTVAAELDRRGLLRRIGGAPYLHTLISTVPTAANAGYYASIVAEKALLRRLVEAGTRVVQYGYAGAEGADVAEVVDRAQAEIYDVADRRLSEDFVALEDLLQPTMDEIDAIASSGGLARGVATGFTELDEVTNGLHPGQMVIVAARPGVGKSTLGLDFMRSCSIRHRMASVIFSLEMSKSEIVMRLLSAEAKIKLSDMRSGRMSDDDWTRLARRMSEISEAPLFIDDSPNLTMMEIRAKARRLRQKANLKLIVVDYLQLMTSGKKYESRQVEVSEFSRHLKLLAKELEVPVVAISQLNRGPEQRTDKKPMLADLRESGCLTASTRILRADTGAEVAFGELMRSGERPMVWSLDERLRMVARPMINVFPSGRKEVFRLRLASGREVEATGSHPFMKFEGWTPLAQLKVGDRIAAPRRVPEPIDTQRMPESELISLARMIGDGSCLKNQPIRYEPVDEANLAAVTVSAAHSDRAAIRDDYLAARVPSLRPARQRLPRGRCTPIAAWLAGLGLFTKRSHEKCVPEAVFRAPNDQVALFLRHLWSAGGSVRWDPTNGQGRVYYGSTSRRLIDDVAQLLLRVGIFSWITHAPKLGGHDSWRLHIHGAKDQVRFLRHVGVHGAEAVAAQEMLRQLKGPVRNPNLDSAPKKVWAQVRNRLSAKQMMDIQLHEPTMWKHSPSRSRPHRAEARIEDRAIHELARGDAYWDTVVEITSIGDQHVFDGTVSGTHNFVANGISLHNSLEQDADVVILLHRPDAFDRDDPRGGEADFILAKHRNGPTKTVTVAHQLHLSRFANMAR

[3] = target: T3, Protein RecA (Mycobacterium tuberculosis, UniProt P9WHJ3); assay: Fluorescence Cell-Free Homogeneous Dose Retest to Identify Inhibitors of RecA-Intein Splicing Activity. [Related pubchem assays (depositor defined):AID2097, AID2223, AID489010, AID492950]; assay type: functional
T3 sequence (P9WHJ3 whole entry): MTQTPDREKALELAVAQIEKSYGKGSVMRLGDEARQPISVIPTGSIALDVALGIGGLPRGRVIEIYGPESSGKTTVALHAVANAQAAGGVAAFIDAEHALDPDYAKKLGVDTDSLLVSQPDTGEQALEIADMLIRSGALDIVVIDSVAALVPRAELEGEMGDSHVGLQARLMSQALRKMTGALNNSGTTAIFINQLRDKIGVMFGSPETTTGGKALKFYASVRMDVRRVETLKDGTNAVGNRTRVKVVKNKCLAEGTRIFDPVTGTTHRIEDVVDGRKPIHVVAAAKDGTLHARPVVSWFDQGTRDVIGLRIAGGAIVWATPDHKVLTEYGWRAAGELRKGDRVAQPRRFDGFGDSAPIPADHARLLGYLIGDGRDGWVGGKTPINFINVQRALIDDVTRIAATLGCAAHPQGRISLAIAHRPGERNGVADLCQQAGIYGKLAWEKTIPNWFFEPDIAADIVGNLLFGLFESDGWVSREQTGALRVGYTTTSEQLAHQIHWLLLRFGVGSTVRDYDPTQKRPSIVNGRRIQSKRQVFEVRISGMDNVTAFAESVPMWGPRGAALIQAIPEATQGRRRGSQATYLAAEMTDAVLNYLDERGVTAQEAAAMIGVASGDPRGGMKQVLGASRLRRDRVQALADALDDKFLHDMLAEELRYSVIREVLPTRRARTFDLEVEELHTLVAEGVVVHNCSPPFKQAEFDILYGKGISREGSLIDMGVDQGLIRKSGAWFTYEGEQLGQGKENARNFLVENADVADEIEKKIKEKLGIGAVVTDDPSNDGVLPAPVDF

[4] = target: T4, Low molecular weight phosphotyrosine protein phosphatase (Homo sapiens, UniProt P24666); assay type: functional; conditions: read-out: IC50_Mean;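 note: Dose-response confirmation assay measuring inhibition of LMPTP enzyme activity by fluorescence intensity read-out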
T4 sequence (P24666 whole entry): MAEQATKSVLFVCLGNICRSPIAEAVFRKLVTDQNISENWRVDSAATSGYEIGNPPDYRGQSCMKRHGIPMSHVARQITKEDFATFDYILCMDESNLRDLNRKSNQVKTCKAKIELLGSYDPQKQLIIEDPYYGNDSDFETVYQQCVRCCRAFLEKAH

[5] = test system: HEK293; assay: NOD1 signaling inhibitors, primary screen, cell-based, luminescence, uHTS (AID 1578); assay type: functional; conditions: Homo sapiens
[6] = test system: HEK293; assay: cells; assay type: functional, cell-based; conditions: Homo sapiens
[7] = test system: HEK293; assay: cells; assay type: functional, cell-based; conditions: Homo sapiens; remark: listed apart in the source
[8] = target: Nucleotide-binding oligomerization domain-containing protein 2 (Homo sapiens, UniProt Q9HC29); assay: NOD2 signaling inhibitors, cell-based, luminescence, uHTS, HEK293 (AID 1566); assay type: functional
Chain of Nucleotide-binding oligomerization domain-containing protein 2 (Q9HC29 whole entry, the tested form may be a part): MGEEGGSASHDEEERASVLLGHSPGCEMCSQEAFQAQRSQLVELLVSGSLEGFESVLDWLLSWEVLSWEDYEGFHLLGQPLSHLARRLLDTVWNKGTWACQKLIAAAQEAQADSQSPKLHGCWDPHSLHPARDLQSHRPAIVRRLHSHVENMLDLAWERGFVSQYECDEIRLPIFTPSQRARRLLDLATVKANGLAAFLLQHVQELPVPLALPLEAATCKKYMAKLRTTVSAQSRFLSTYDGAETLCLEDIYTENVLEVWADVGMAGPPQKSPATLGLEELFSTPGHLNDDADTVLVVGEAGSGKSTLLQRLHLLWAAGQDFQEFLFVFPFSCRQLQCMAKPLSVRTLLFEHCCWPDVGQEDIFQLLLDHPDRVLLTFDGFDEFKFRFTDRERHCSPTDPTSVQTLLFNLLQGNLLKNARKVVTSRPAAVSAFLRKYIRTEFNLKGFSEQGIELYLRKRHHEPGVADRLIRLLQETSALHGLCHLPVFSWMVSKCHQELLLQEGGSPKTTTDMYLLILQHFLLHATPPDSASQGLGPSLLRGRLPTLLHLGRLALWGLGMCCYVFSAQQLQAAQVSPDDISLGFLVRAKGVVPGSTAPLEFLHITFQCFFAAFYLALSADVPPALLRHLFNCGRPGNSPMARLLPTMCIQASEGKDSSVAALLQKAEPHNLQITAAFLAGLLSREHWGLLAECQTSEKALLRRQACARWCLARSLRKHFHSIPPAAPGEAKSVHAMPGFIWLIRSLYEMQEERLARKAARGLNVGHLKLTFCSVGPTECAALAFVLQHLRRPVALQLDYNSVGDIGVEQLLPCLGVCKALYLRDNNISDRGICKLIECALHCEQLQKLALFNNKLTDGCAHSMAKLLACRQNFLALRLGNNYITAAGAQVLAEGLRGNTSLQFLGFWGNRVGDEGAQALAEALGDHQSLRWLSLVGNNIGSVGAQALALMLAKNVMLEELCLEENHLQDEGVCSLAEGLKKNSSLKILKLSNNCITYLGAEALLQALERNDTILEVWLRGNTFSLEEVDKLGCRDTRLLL

[9] = test system: HEK293; assay: NOD2 signaling inhibitors in MDP-stimulated cells, cell-based, uHTS, luminescence (AID 2001); assay type: functional; conditions: Homo sapiens
[10] = test system: HEK293; assay: cells; assay type: functional, cell-based; conditions: Homo sapiens; remark: listed apart in the source
[11] = Luminescence Cell-Based Dose Retest to Confirm Inhibitors of Cancer Stem Cells. [Related pubchem assays (depositor defined):AID2717, AID2721]; assay type: functional, Homo sapiens; conditions: Homo sapiens
[12] = test system: Vero; assay: Vero cell cytotoxicity, cytotoxicity control for flavivirus capping enzyme inhibitors (AID 588742); assay type: functional; conditions: Chlorocebus sabaeus
[13] = target: Genome polyprotein (dengue virus type 2, UniProt P29990); assay: Dengue-2 NS5 methyltransferase inhibitors, primary screen, biochemical, confirmation dose response (AID 588689); assay type: functional
Chain of Genome polyprotein (P29990 2492-3391 limits assumed): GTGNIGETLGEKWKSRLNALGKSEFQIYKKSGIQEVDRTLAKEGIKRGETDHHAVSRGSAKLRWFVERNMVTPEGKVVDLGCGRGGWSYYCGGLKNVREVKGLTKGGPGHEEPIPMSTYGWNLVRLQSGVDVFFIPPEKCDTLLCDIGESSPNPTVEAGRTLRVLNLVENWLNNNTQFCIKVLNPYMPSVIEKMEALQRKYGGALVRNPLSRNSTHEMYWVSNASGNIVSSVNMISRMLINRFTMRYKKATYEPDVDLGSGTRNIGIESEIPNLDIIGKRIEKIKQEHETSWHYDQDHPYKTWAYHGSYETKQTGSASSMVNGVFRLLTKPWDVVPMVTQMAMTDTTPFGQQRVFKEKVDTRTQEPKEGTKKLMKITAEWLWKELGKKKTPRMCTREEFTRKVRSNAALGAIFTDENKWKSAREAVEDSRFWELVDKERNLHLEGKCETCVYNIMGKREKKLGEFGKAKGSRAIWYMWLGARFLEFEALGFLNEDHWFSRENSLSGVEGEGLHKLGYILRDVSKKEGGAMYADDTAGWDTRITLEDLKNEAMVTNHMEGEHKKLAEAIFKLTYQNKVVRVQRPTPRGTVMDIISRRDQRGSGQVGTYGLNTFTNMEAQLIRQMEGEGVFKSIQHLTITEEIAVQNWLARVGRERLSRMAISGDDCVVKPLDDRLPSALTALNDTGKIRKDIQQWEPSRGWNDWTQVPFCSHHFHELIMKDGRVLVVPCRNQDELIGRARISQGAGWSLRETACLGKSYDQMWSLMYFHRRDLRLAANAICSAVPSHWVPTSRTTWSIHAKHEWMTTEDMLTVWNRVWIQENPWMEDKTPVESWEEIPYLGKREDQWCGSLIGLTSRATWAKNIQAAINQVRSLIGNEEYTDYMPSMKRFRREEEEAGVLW

| SMILES | IC50 [4] | EC50 [5] | IC50 [6] | IC50 [7] | EC50 [8] | IC50 [9] | IC50 [10] | further results |
| --- | --- | --- | --- | --- | --- | --- | --- | --- |
| Cc1ccc(S(=O)(=O)Nc2c(O)ccc3ccccc23)cc1 | – | – | – | – | – | – | – | IC50 [1]: 16.1 µM (active); AC50 [2]: 8.03 µM (active); EC50 [3]: 0.939 µM (active) |
| CCOC(=O)CSc1nc2ccc(C)cc2n2cnnc12 | – | – | – | – | – | – | – | IC50 [1]: 9.55 µM (active) |
| CCn1cc(C(=O)O)c(=O)c2cc(F)c(N3CCN(C(=S)NC(=O)c4cccc(C)c4)CC3)cc21 | 2.74 µM (active) | – | – | – | – | – | – | – |
| Cc1nc(SCCC(=O)O)c2cc(-c3ccccc3)sc2n1 | – | > 20 µM (inactive) | 4.5 µM (active) | > 20 µM (inactive) | > 20 µM (inactive) | > 20 µM (inactive) | > 20 µM (inactive) | – |
| O=C(Nc1ccccc1-c1nc2ccccc2s1)C1=COCCO1 | 11.7 µM (active) | – | – | – | – | – | – | – |
| Cc1ccc(S(=O)(=O)Nc2ccccc2-c2ccccc2NS(=O)(=O)c2ccc(C)cc2)cc1 | – | 4.99 µM (active) | 11.8 µM (active) | > 20 µM (inactive) | 11.5 µM (active) | 10 µM (inactive) | > 20 µM (inactive) | AC50 [11]: 6.86 µM (active); CC50 [12]: > 40 µM (active); IC50 [13]: 54.8 µM (active) |
| CCn1cc(C(=O)O)c(=O)c2cc(F)c(N3CCN(C(=S)NC(=O)c4ccc(Br)cc4)CC3)cc21 | 3.17 µM (active) | – | – | – | – | – | – | – |
| NC(=O)c1c(NC(=O)C(=O)N2CCOCC2)sc2c1CCCC2 | – | > 20 µM (inactive) | > 20 µM (inactive) | > 20 µM (inactive) | > 20 µM (inactive) | > 20 µM (inactive) | > 20 µM (inactive) | – |
